Measured values from patent US20190313679A1, “SUGAR-DIPEPTIDE CONJUGATES AS FLAVOR MOLECULES” (NESTEC S.A., priority 2016, published 2019).
Residues, ends and D or L forms follow the SMILES beside them.

Experiments:
Format in all cases: in vivo
[1] = Sensory evaluation of the compounds in water; details: 2 g/L in water, 12 panelists
Protocol: The compounds glutamyl-threonine and 1-deoxy-D-fructosyl-N-glutamyl-threonine were each dissolved and diluted in water in a final concentration of 2 g/L. The solutions were then evaluated by 12 panelists, which were previously screened and selected for their sensory abilities.

[2] = Seasoning compositions: tomato soups with added compound; details: tomato soup, 0.5 g/L or 2.5 g/L, versus reference soups without the compounds
Protocol: Tomato soups can be prepared by dissolving 6 g tomato base powder as can be obtained in the commerce in 500 mL hot water. 1-deoxy-D-fructosyl-N-glutamyl-threonine or alternatively 1-deoxy-D-fructosyl-N-glutamyl-serine can be added at a concentration of 0.5 g/L or 2.5 g/L to the soups in order to improve their taste and flavor profile. […] For example, a similar tomato soup can now be prepared which has the same saltiness as the reference tomato soup but comprising less sodium chloride.

[3] = Comparison between soup bases containing the sugar conjugate and the mixture of glucose and glutamyl-threonine; details: soup base with 2 g/L (4.57 mmol/L) versus reference soup with same molar glucose and glutamyl-threonine, 6 panelists
Protocol: A first soup was prepared by adding 2 g/L (4.57 mmol/L) 1-deoxy-D-fructosyl-N-glutamyl-threonine in the soup base described above under Example 4. A second soup was prepared by adding the corresponding same molar concentrations of glucose and glutamyl-threonine to the same soup base. The resulting soups were then evaluated by 6 panelists following the same procedure than described above under Example 4.

[4] = Sensory evaluation of the compounds in a chicken soup base; details: chicken soup with 2 g/L versus reference samples, 12 panelists
Protocol: Chicken soups were prepared by dissolving 6 g chicken base powder (detailed recipe shown in Table 1) and 1 g monosodium glutamate in 500 mL hot water. 1-Deoxy-D-fructosyl-N-glutamyl-threonine was then added separately at 2 g/L final concentrations.
The sensory evaluation was carried out by 12 panelists, previously screened for their sensory abilities. The panelists assessed a maximum of 6 samples per session. They had Vittel water and crackers as mouth cleansers. In all the cases, the panelists were instructed to evaluate the samples for the following attributes: overall flavor persistency, umami, meaty, grilled/popcorn-like, bread-like, boiled chicken, sweet, bitter, and salty. The samples were coded with random 3-digit numbers according to a balanced presentation design, heated at approximately 65° C. and then presented in 40 mL brown plastic containers and under red light to minimize appearance bias (the serving was approximately 25 mL per sample).
The following statistical tests were used to analyze the sensory raw data: First, the Analysis of Variance (ANOVA) with two factors, products (fixed factor) and subject (random factor) was computed in order to determine if there was any difference among samples. The limit of significance (alpha risk) was set at 5%. […] The limit of significance (alpha risk) was set at 5%.

Structure (SMILES) | perceived saltiness of the aqueous solution versus the reference samples [1] | perceived saltiness [2] | umami [2] | salty and umami taste, tasted with nose-clips [3] | savory flavors, tasted without nose-clips [3] | bitterness [4] | saltiness ([4]; FIG. 1) | meaty taste ([4]; clear trend) | umami taste ([4]; clear trend) | taste of the aqueous solution [1]
CC(O)[C@H](NC(=O)[C@H](CCC(=O)O)NCC1(O)OCC(O)C(O)C1O)C(=O)O (stereo partly drawn) [1-deoxy-D-fructosyl-N-glutamyl-threonine] | much more salty | more salty | more pronounced umami | significantly more salty and umami | clearly more enhanced savory flavors | decreased | significantly increased | improved | improved | –
C[C@@H](O)[C@H](NC(=O)[C@@H](N)CCC(=O)O)C(=O)O [glutamyl-threonine, reference compound] (H-Glu-Thr-OH) | – | – | – | – | – | – | – | – | – | slightly umami and salty
